Six compounds from patent US11013696B2, “Lipids and lipid compositions for the delivery of active agents” (Novartis AG, priority 2013, dated 2021) can be followed below.

A short description of series [1]: Percent encapsulation of plasmid DNA in lipid nanoparticles (Quant-iT Ribogreen). Format: physicochemical. As to the method:
All equipment and disposable supplies are certified free of RNase activity by the manufacturer or rendered RNase free by use of the RNaseZap reagent (LifeTechnologies). Plasmid is encapsulated at a cationic lipid amine to DNA phosphate (N:P) molar ratio of 4:1. Lipids (cationic lipid, DSPC, cholesterol and lipidated PEG) are dissolved in ethanol. The molar ratios are 40:10:38:2, respectively. The mixture is sonicated briefly, then gently agitated for 5 minutes and then maintained at 37° C. until use. Plasmid is exchanged into citrate buffer pH 6.0 by use of Amicon Ultra-15 centrifugal concentrators, and the final concentration is adjusted to 0.053 mg/ml and held at 37° C. until use. An equal volume of lipids in ethanol, plasmid in citrate buffer, and citrate buffer alone are drawn into disposable syringes. Tubing leading from syringes containing lipids and DNA are attached to the T junction, and tubing leading from the syringe containing citrate buffer alone is paired with the tubing exiting the T-junction over a collection vessel containing a stir bar on an active stir plate. Syringes are placed in a syringe pump set to expel contents at a flow rate of 1 ml per minute. The pump is activated, and the collected DNA in lipid nanoparticles is transferred to SnakeSkin dialysis tubing (10,000 MWCO, Thermo Scientific). Material is dialyzed against RNAse- and pyrogen-free 1× phosphate buffered saline overnight at 4° C.
Percent encapsulation of plasmid DNA in lipid nanoparticles is determined using the Quant-iT Ribogreen RNA Assay kit (Life Technologies). The LNP-DNA suspension is assayed in buffer (DNA outside the particle), and buffer plus Triton X-100 detergent (total DNA). The difference calculated is the DNA inside the particle. Prepare a 1000 ng/mL stock using unpackaged plasmid and use this to generate a standard curve (0 ng/ml, 15.63-1000 ng/ml) in TE and TE+0.75% Triton X-100. Prepare LNP-plasmid samples in TE buffer and TE buffer+0.75% Triton X-100 with appropriate dilution so that reading is in the range of standard curve (25 fold). In a 384-well plate (Costar non-treated #3573) add 0.04 ml of standard (in duplicate) or sample (in triplicate) per well. Dilute Ribogreen reagent 240-fold in TE buffer and add 0.06 ml per well. Mix contents of wells and measure fluorescence (excitation=480 nm, emission=520 nm). Subtract background values (no DNA) from standard and test sample values and determine the concentrations of DNA in the samples using the standard curves. Determine the percent encapsulation of the sample by dividing the difference in concentrations between sample+triton and sample in buffer alone by the sample+triton concentration.

Series [2] is described as follows: siRNA encapsulation in lipid nanoparticles (SYBR Gold). Format: physicochemical. Particulars: for % Encap.: FVII siRNA; for % encapsulation siRNA FVII: Table 2, FVII siRNA in LNP with the cationic lipid. The procedure, abridged: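 SYBR Gold fluorescence (ex 485/em 530 nm) of LNPs made by impinging-jet mixing of ethanolic lipids (cationic, cholesterol, optional DSPC, PEG/stealth lipid) with siRNA in citrate pH 4-6, siRNA:lipid ~0.05 wt/wt. Samples with and without Triton X-100 gave free and total siRNA for encapsulation efficiency.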

Consider `CCCCCCCCCCCCC(CCOC(=O)CCCCC(COC(=O)CCCCCCC)COC(=O)CCCCCCC)OC(=O)OCCCN(CC)CC` (centres unmarked) [Example 1, 2-(10-dodecyl-3-ethyl-8,14-dioxo-7,9,13-trioxa-3-azaoctadecan-18-yl)propane-1,3-diyl dioctanoate], for which the entries for the “% Encap.” value in series [1] (hLep plasmid) and in series [1] (pDNA) were 93.5% and 94.3%, respectively.
In the case of `CCCCC/C=C\C/C=C\CCCCCCCCC(CCC(=O)OC(COC(=O)CCCCCCC)COC(=O)CCCCCCC)OC(=O)OCCCN(C)C` (centres unmarked) [Example 94, 2-(((13Z,16Z)-4-(((3-(dimethylamino)propoxy)carbonyl)oxy)docosa-13,16-dienoyl)oxy)propane-1,3-diyl dioctanoate], the “% Encap.” value in series [2] came out at 74.8%; in series [1] (hLep plasmid) it was 95.0%; in series [1] (pDNA), 89.3%. The “% encapsulation siRNA FVII” value in series [2] was 74.8%.
On to `CCCCCCCCCC(=O)OCCC(CC(CCCCCCCC)CCCCCCCC)OC(=O)OCCCN(C)C` (centres unmarked) [Example 70, 3-(((3-(dimethylamino)propoxy)carbonyl)oxy)-5-octyltridecyl decanoate], for which the “% encapsulation siRNA FVII” value in series [2] stood at 80.0%.
Consider `CCCCC/C=C\C/C=C\CCCCCCCC(=O)OCC(COC(=O)CCCCCCC/C=C\C/C=C\CCCCC)OC(=O)CCC(CCCCCCCCCCCC)OC(=O)OCCCN(C)C` (centres unmarked) [Example 80, (9Z,9′Z,12Z,12′Z)-2-((4-(((3-(dimethylamino)propoxy)carbonyl)oxy)hexadecanoyl)oxy)propane-1,3-diyl bis(octadeca-9,12-dienoate)], for which, in series [2], the “% Encap.” value was found to be 85.2% and the “% encapsulation siRNA FVII” value is on record as 85.2%.
For the compound `CCCCCCCCCCCCC(CCOC(=O)CCCCC(OCCCCCCCC)OCCCCCCCC)OC(=O)OCCCN(CC)CC` (centres unmarked) [Example 16, 3-(((3-(diethylamino)propoxy)carbonyl)oxy)pentadecyl 6,6-bis(octyloxy)hexanoate], the “% Encap.” value in series [2] is recorded as 88.9%; in series [1] (hLep plasmid), 96.7%; in series [1] (pDNA) it was 96.4%. Moreover, the “% encapsulation siRNA FVII” value in series [2] amounted to 88.9%.
For `CCCCCCCCCCCCC(CCOC(=O)CCCCC(OCC(CC)CCCC)OCC(CC)CCCC)OC(=O)OCCCN(CC)CC` (centres unmarked) [Example 18, 3-(((3-(diethylamino)propoxy)carbonyl)oxy)pentadecyl 6,6-bis((2-ethylhexyl)oxy)hexanoate], the “% encapsulation siRNA FVII” value in series [2] came out at 91.2%.
